Measurements: US9687539B2, “CD4+ T survivin epitopes and uses thereof” (Commissariat a I'Energie Atomique, priority 2005, dated 2017)
Substitutions are numbered along the chain they refer to. No end group written: not given here.

Tests used:
[1] = molecular target: HLA-DR13 (DRB1*1301) (Homo sapiens, UniProt P01903+P01911, A100E/A169T/K41T/L162R/M171V/P40S/Q125H/Q178H/Q39Y/Q99D/R42S/S66N/T262R/W38E/Y61H); assay: Competitive HLA II/peptide binding assay, HLA-DR13; conditions: competition with biotinylated tracer; 3 independent experiments; read-out: Binding activity DR13 (IC50)
[2] = molecular target: HLA-DRB4 (DRB4*0101) (Homo sapiens, UniProt P01903+P13762, G164S); assay: Competitive HLA II/peptide binding assay, HLA-DRB4; conditions: competition with biotinylated tracer; 3 independent experiments
[3] = molecular target: HLA-DRB5 (DRB5*0101) (Homo sapiens, UniProt P01903+Q30154); assay: Competitive HLA II/peptide binding assay, HLA-DRB5; conditions: competition with biotinylated tracer; 3 independent experiments
[4] = molecular target: HLA-DR15 (DRB1*1501) (Homo sapiens, UniProt P01903+P01911); assay: Competitive HLA II/peptide binding assay, HLA-DR15; conditions: competition with biotinylated tracer; 3 independent experiments
[5] = molecular target: T1, HLA-DP401 (DP*0401) (Homo sapiens, UniProt P04440+P20036); assay: biochemical; conditions: competition with biotinylated tracer; 3 independent experiments; read-out: Binding activity DP401 (IC50)
T1 sequence (P04440 30-258): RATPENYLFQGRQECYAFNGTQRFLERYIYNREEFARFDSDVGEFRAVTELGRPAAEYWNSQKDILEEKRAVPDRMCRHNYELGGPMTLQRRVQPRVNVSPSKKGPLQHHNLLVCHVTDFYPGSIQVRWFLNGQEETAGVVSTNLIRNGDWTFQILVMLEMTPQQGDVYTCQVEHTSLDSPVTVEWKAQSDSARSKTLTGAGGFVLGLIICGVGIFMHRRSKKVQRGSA
T1 sequence (P20036 29-260): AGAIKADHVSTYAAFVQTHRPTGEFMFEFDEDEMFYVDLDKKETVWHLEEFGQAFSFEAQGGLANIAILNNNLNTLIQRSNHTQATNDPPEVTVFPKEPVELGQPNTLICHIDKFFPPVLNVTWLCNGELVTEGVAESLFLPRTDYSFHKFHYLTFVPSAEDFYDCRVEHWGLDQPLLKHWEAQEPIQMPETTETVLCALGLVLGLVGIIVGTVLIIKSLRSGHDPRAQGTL

[6] = tested on: 12 predominant HLA II molecules; assay: Binding to the 12 predominant HLA II molecules, summary; parameters: species or system human; conditions: for No. of molecules fixed: number of the 12 predominant HLA II molecules bound (IC50 < 1000 nM)
Excerpt: The assays for binding to HLA II molecules are competitive binding assays with immunoenzymatic visualization, as described in U.S. Pat. No. 6,649,166, Texier et al., J. Immunol., 2000, 164, 3177-3184 and Texier et al., Eur. J. Immunol., 2001, 31, 1837-1846, for the HLA-DR molecules, and in PCT international application WO 03/040299 and Castelli et al., J. Immunol., 2002, 169, 6928-6934, for the HLA-DP4 molecule. The use of these assays for measuring the binding activity of peptides derived from various antigens is illustrated in U.S. Pat. No. 6,649,166 and PCT international applications WO 02/090382, WO 03/040299 and WO 2004/014936.
The sensitivity of each assay is reflected by the IC50 values observed with the nonbiotinylated peptides which correspond to the tracers; the IC50 values of the tracers vary by a factor of less than three.

[7] = molecular target: HLA-DRB3 (DRB3*0101) (Homo sapiens, UniProt P01903+P79483); assay: Competitive HLA II/peptide binding assay, HLA-DRB3; conditions: competition with biotinylated tracer; 3 independent experiments
[8] = molecular target: HLA-DR3 (DRB1*0301) (Homo sapiens, UniProt P01903+P01911, A100K/A102G/A103R/A169T/F55Y/I96L/K41T/L162R/M171V/P40S/Q125H/Q178H/Q39Y/R42S/S66N/T106N/T262R/W38E/Y61H); assay: biochemical; conditions: competition with biotinylated tracer; 3 independent experiments; read-out: Binding activity DR3 (IC50)
[9] = molecular target: T2, HLA-DP402 (DP*0402) (Homo sapiens, UniProt P04440+P20036, A65V/A84D/A85E/L207M); assay: biochemical; conditions: competition with biotinylated tracer; 3 independent experiments; read-out: Binding activity DP402 (IC50)
T2 sequence (P04440 30-258 A65V/A84D/A85E): T1 sequence (P04440 30-258) with A36V, A55D, A56E
T2 sequence (P20036 29-260): T1 sequence (P20036 29-260)

[10] = molecular target: HLA-DR4 (DRB1*0401) (Homo sapiens, UniProt P01903+P01911, A100K/A169T/F76Y/I96L/K127E/L162R/M171V/N62H/P40V/Q125Y/R42H/S133A/S149N/S66Y/V115G/V209L/W38E); assay: Competitive HLA II/peptide binding assay, HLA-DR4; conditions: competition with biotinylated tracer; 3 independent experiments
[11] = molecular target: HLA-DR7 (DRB1*0701) (Homo sapiens, UniProt P01903+P01911, A100R/A102G/A103Q/D57E/D86V/E43K/F76Y/K127E/L162R/M171V/P40G/Q125H/Q99D/R33Q/R42Y/R54Q/S133A/S66F/T210M/V115G/Y107V/Y59L/Y89S); assay: biochemical; conditions: competition with biotinylated tracer; 3 independent experiments; read-out: Binding activity DR7 (IC50)
[12] = molecular target: HLA-DR11 (DRB1*1101) (Homo sapiens, UniProt P01903+P01911, A100R/A169T/A87E/I96F/K41T/L162R/M171V/P40S/Q125H/Q178H/Q39Y/Q99D/R42S/S66Y/T262R/V115G/W38E); assay: biochemical; conditions: competition with biotinylated tracer; 3 independent experiments; read-out: Binding activity DR11 (IC50)
[13] = molecular target: HLA-DR1 (DRB1*0101) (Homo sapiens, UniProt P01903+P01911, A100R/D57E/F55L/F60I/F76Y/I96L/L162R/M171V/P40L/Q125E/R42F/V115G/Y59C); assay: Competitive HLA II/peptide binding assay, HLA-DR1; conditions: competition with biotinylated tracer; 3 independent experiments

Molecule	IC50 [1] [µM]	IC50 [2] [µM]	IC50 [3] [µM]	IC50 [4] [µM]	IC50 [5] [µM]	No. of molecules fixed [6]	IC50 [7] [µM]	IC50 [8] [µM]	IC50 [9] [µM]	IC50 [10] [µM]	Binding specificity for HLA II molecules [6]	IC50 [11] [µM]	IC50 [12] [µM]	IC50 [13] [µM]
FCFKELEGWEPDDDP [59-73, F C F K E L E G W E P D D D P]	> 100	> 100	45	8	> 100	0	> 100	> 100	> 100					
LKLDRERAKNKIAKE [102-116, L K L D R E R A K N K I A K E]	> 100	> 100	0.018	> 100	> 100	1	> 100	> 100	> 100	> 100				
AGFIHCPTENEPDLA [peptide 41-55, A G F I H C P T E N E P D L A]	> 100				> 100	1		> 100	> 100	5	binds only to the HLA-DRB4 molecule			
ERMAEAGFIHCPTEN [36-50, E R M A E A G F I H C P T E N]	> 100			> 100		0	> 100	> 100		17		17		
GEFLKLDRERAKNKI [99-113, G E F L K L D R E R A K N K I]		22	0.022	1.2		3	> 100		> 100				0.04	
DPIEEHKKHSSGCAF [72-86, D P I E E H K K H S S G C A F]		> 100		> 100	> 100	0	> 100	> 100	> 100	> 100		> 100	> 100	
CC(C)C[C@H](NC(=O)[C@H](Cc1ccccc1)NC(=O)[C@@H]1CCCN1C(=O)[C@H](CCC(N)=O)NC(=O)[C@H](Cc1c[nH]c2ccccc12)NC(=O)[C@H](C)NC(=O)[C@@H]1CCCN1C(=O)[C@@H]1CCCN1C(=O)[C@H](CC(C)C)NC(=O)[C@@H](NC(=O)[C@@H]1CCCN1)[C@@H](C)O)C(=O)N[C@@H](CCCCN)C(=O)N[C@@H](CC(=O)O)C(=O)N[C@@H](Cc1c[nH]cn1)C(=O)N[C@@H](CCCNC(=N)N)C(=O)O [4-18, P T L P P A W Q P F L K D H R]		> 100	5.48	> 100		1	> 100	> 100		> 100	bind only to the HLA-DR11 molecule	> 100		45
KQFEELTLGEFLKLD [91-105, K Q F E E L T L G E F L K L D]	> 100	> 100				5	30	> 100			high affinity for the DR1, DR7, DRB5, DP401 and DP402 molecules		2.35	
EGWEPDDDPIEEHKK [65-79, E G W E P D D D P I E E H K K]	> 100	> 100	> 100	> 100	> 100	0	> 100	> 100	> 100	> 100		> 100	> 100	> 100
MGAPTLPPAWQPFLK [1-15, M G A P T L P P A W Q P F L K]	> 100	> 100	8			1	> 100	> 100		> 100	bind only to the HLA-DR11 molecule	> 100		
KELEGWEPDDDPIEE [62-76, K E L E G W E P D D D P I E E]	> 100	> 100	> 100	65	> 100	0	29	> 100	> 100	> 100		> 100	> 100	> 100
KEFEETAKKVRRAIE [122-136, K E F E E T A K K V R R A I E]		> 100		1.2	> 100	3	> 100		> 100	> 100		20		
